Test [1] has as its target T1, rat SSTR-5 (Rattus norvegicus, UniProt P30938).
T1 construct: Crude membranes were prepared by homogenization of rat olfactory bulb cells; tissue Zivic-Miller Laboratory, Inc; host or cells: rat olfactory bulb
T1 sequence (P30938 1-363): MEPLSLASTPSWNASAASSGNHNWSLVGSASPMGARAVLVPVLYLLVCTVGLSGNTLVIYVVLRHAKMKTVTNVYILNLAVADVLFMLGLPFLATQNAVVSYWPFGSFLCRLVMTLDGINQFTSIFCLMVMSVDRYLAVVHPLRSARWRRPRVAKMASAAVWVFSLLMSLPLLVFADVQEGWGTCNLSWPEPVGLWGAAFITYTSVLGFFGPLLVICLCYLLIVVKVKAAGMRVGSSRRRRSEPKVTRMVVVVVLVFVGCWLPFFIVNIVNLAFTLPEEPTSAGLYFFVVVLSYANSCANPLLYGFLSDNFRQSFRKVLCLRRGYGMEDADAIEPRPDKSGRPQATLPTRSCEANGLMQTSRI
Nature of the test: Rat SSTR-5 binding assay ([125I-Tyr11]somatostatin-14, rat olfactory bulb membranes). As to the method: (§1) Crude membranes were prepared by homogenization of rat olfactory bulb cells (Zivic-Miller Laboratory, Inc., Zellenople, Pa.) in 20 ml of ice-cold 50 mM Tris-HCl with a POLYTRON homogenizer (setting 6, 15 sec). Buffer was added to obtain a final volume of 40 ml, and the homogenate was centrifuged in a Sorval SS-34 rotor at 39,000 g for 10 min at 0-4° C. The resulting supernatant was decanted and discarded. The pellet was rehomogenized in ice-cold buffer, diluted, and centrifuged as before. The final pellet was resuspended in the 10 mM Tris HCl and held on ice for the receptor binding assay.
(§2) The final assay volume was 0.3 ml. The incubations were terminated by rapid filtration through GF/C filters (pre-soaked in 0.3% polyethylenimine for 30 min) using a Brandel filtration manifold. Each tube and filter were then washed three times with 5 ml aliquots of ice-cold buffer.

In test [2] the test system is rat SSTR-5. The description is as above. The conditions noted are these: rat SSTR-2 Ki / rat SSTR-5 Ki. On the procedure: as §1, §2
Another test concerns the target T2, human SSTR-5 (Homo sapiens, UniProt P35346).
T2 construct: expressed in transfected cells
Nature of the test: Human SSTR-5 binding assay (transfected CHO-K1 cells). The following applies: for SSTR-2/SSTR-5 (ratio of Ki's): human SSTR-2 Ki / human SSTR-5 Ki. An excerpt: The human SSTR-5 cDNA clone has been described in the literature. See Panetta, et al., Mol Pharmacol., 45:417-427 (1994); O'Carroll, et al., Mol Pharmacol, 46:291-298 (1994); Yamada, et al., Biochem. Biophys. Res. Commun., 195:844 (1993) [FIG. 1 depicts the DNA sequence of the human SSTR-5.] Using a sense 5′-oligonucleotide primer, immediately preceeding the start codon (residue 30-50), and an antisense 3′-oligonucleotide primer, immediately preceeding the stop codon (residues 1180-1200), a 1170 base pair fragment comprising the full-length coding sequence of the receptor was obtained by standard Reverse-transcription PCR. See Yamada, et al., Biochem. Biophys. Res. Commun., 195:844 (1993) [FIG. 1 depicts the DNA sequence of the human SSTR-5]; Innis, et al., PCR Protocols, A Guide to Methods and Applications, Academic Press, 1990. The identity of the cDNA fragment was verified by DNA sequencing using the dideoxy-chain termination method [Sanger, et al., Proc Natl Acad Sci USA., 74:5463 (1977)] with the Sequenase kit (United States Biochemicals, Arlington Heights, Ill.).
The human SSTR-5 cDNA fragment was inserted into a mammalian expression vector, pCMV to generate the expression plasmid pCMV-human SSTR-5 by blunt-end ligation.
Membranes from the stably transfected cell line were used in the rat SSTR-5 binding protocol described above.

The target of a further test is human SSTR-2 (Homo sapiens, UniProt P30874). Nature of the test: Human SSTR-2 binding assay (transfected CHO-K1 cells).
A further test deals with T3, rat SSTR-2 (Rattus norvegicus, UniProt P30680).
T3 construct: Crude membranes were prepared by homogenizing AR42J cells; host or cells: AR42J rat pancreatic acinar tumor cells
The test can be described thus: Rat SSTR-2 binding assay ([125I-Tyr]MK-678, AR42J cell membranes). As to the method: Crude membranes were prepared by homogenizing AR42J cells (ATCC, Rockville, Md.; ATCC No. CRL1992) in 20 ml of ice-cold 50 mM Tris-HCl (Buffer A) with a POLYTRON homogenizer (Brinkmann Instruments, Westbury, N.Y.) at setting 6, for 15 sec. Additional Buffer A was added to obtain a final volume of 40 ml, and the homogenate was centrifuged in a Sorval SS-34 rotor (DuPont, Newtown, Conn.) at 39,000 g for 10 min at 0-4° C. The resulting supernatant was decanted and discarded. The pellet was rehomogenized in ice-cold Buffer A, diluted, and centrifuged as before. The final pellet was resuspended in the 10 mM Tris HCl and held on ice for the receptor binding assay.
Aliquots of the membrane preparation were incubated for 90 min at 25° C. with 0.05 nM [^125I-Tyr]MK-678 (2000 Ci/mmol) in 50 mM HEPES (pH 7.4) containing a test peptide of various concentrations (e.g., 10^−11 to 10^−6 M), 10 mg/ml bovine serum albumin (fraction V) (Sigma Chemical Co., St. Louis, Mo.), MgCl2 (5 mM), Trasylol (200 KIU/ml), bacitracin (0.02 mg/ml), and phenylmethyl-sulphonyl fluoride (0.02 mg/ml). The final assay volume was 0.3 ml. The incubations were terminated by rapid filtration through GF/C filters (pre-soaked in 0.3% polyethylenimine for 30 min) using a filtration manifold (Brandel, Gaithersburg, Md.).

In a further test the test system is rat Pancreas cells. Nature of the test: Amylin release inhibition assay using rat pancreas cells (isolated perfused pancreas). In kind it is cell-based. The conditions noted are these: 16.7 mM glucose, 10 nM test compound.
The mark [3] stands for this setting: rat, AR42J cell membranes, radioligand [125I-Tyr]MK-678 0.05 nM, read-out: Ki SSTR-2.

Experimental findings from US6774109B2, “Inhibition of amylin release” (Societe de Conseils de Recherches et d'Applications …, priority 1995, dated 2004) are described below.

Like-named read-outs stand apart in the source and are kept apart here. Non-standard residues stand in square brackets, D forms with d. Residues, ends and D or L forms follow the SMILES beside them. *: point of attachment. X1 = O=C(CN1CCN(CCO)CC1)*

Chain of human SSTR-2 (P30874 whole entry): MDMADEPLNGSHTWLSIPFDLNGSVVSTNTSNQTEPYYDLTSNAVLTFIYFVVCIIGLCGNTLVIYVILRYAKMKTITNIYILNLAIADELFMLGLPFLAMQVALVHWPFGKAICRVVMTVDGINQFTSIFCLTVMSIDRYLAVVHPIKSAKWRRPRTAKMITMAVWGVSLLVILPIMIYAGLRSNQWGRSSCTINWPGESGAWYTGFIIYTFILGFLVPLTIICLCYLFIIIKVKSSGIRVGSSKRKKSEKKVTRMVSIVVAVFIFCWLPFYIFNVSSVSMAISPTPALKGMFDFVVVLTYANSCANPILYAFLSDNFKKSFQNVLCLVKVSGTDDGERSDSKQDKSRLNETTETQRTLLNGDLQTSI
T2 sequence (P35346 whole entry): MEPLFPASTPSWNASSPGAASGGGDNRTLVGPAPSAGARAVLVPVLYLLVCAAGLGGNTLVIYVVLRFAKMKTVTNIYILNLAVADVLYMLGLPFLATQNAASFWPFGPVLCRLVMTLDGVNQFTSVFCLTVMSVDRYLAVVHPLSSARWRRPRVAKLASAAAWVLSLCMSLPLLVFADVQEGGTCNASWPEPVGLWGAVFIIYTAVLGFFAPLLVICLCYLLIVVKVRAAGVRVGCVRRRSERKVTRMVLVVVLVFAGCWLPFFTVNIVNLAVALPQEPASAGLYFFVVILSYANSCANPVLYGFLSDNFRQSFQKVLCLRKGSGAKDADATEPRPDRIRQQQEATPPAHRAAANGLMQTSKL
T3 sequence (P30680 whole entry): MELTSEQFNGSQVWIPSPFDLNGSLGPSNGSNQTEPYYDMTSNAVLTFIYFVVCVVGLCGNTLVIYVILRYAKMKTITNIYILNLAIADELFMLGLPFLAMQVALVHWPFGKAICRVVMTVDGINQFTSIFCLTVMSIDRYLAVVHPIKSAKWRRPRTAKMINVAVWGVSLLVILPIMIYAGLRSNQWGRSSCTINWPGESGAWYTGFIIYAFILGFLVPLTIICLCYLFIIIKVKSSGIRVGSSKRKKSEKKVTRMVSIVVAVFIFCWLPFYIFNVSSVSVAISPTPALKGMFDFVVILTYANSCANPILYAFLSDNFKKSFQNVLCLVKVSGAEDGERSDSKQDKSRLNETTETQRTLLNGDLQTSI
Method for human SSTR-2: CHO-K1 (ovary, Chinese hamster) cells were obtained from the American Type Culture Collection, Rockville, Md. […] The cells were grown and maintained in Ham's F12 media (Gibco BRL, Grand Island, N.Y.) supplemented with 10% fetal bovine serum under standard tissue culture conditions.
For transfection, the cells were seeded at a density 1×10^6/60 cm^2 plate (Baxter Scientific Products, McGaw Park, Ill.). DNA mediated transfection was carried out using the calcium phosphate co-precipitation method (Ausubel, et al., Current Protocols in Molecular Biology, John Wiley & Sons, 1987). The plasmid pRSV-neo (ATCC; ATCC No. 37198) was included as a selectable marker at 1/10 the concentration of the expression plasmid. CHO-K1 clonal cell lines that have stably inherited the transfected DNA were selected for growth in Ham's F12 media containing 10% fetal bovine serum and 0.5 mg/ml of G418 (Sigma Chemical Co., St. Louis, Mo.). The cells were ring-cloned and expanded in the same media for analysis.
Method for rat Pancreas cells: Sprague-Dawley rats (male, 200-300 g) (Harlan-Olac, Bicester, Oxon, UK) were anaesthetized with sodium pentobarbitone (60 mg/kg). […] The pancreases were perfused, as described in Dunmore, et al., J. Endocrinol., 1993, 137, 375-381, with modified Krebs-Ringer bicarbonate buffer containing 3% dextran T40 (Pharmacia, Milton Keynes, Bucks, UK) and 1% high purity bovine serum albumin (Sigma, Poole, Dorset, UK). After an initial 15-min period to allow for stabilization, the isolated pancreases were perfused at sequential 10 min. intervals, at a rate of 4.5-5.0 ml/min, with the following buffer compositions: 1) Buffer 1: Krebs-Ringer bicarbonate buffer containing 5.6 mM glucose (to examine baseline amylin secretion); 2) Buffer 2: Krebs-Ringer bicarbonate buffer containing 16.7 mM glucose (to examine high glucose stimulated secretion); 3) Buffer 3: Krebs-Ringer bicarbonate buffer containing 16.7 mM glucose in the presence of 10 nM of test compound (to examine the activity of test compounds on high glucose stimulated amylin secretion); and 4) Buffer 2: Krebs-Ringer bicarbonate buffer containing 16.7 mM glucose (to re-examine high glucose stimulated amylin secretion in order to assess the reversibility of the activity of the test compounds).
Fractions of the perfusate were collected on ice every minute in the presence of 400 KIU/ml aprotinin (Bayer, Hayward's Heath, W. Sussex, UK). Fractions were stored at −20° C. until assay. Perfusates collected were divided into 3×1.5 ml aliquots and assayed for amylin by radioimmunoassay as described in Dunmore, et al., J. Endocrinol., 1993, 137:375. Amylin was assayed using reagents supplied by Peninsula Laboratories Ltd. (St. Helens, Merseyside, UK). These reagents include ^125I-labelled amylin, rabbit anti-rat amylin antibody, and rat amylin. Bound amylin was precipitated using goat anti-rabbit second antibody—coupled cellulose (Sac-Cal, IDS, Boldon, Tyneawear, UK).

Regarding `C[C@@H](O)[C@H](NC(=O)[C@H](Cc1ccccc1)NC(=O)[C@@H](NC(=O)[C@H](CCCCN)NC(=O)[C@@H](Cc1c[nH]c2ccccc12)NC(=O)[C@H](Cc1ccccc1)NC(=O)[C@H](Cc1ccccc1)NC(=O)[C@H](N)Cc1ccccc1)[C@@H](C)O)C(=O)O` [Analog I, H-D-Phe-Phe-Phe-D-Trp-Lys-Thr-Phe-Thr-OH] (H-[dF]FF[dW]KTFT-OH), the Ki – broadly, the equilibrium dissociation constant of an inhibitor or competing ligand from its target – on rat SSTR-5 [1] (read-out: Ki SSTR-5) was found to be 3.57 nM; at human SSTR-5, 12.4 nM; at human SSTR-2, 14.2 nM; at rat SSTR-2 (setting [3]) it was 37.2 nM. Besides, the “SSTR-2/SSTR-5 (ratio of Ki's)” value with rat SSTR-5 [2] is reported as 10.4; at human SSTR-5 it was 1.14.

As for `C[C@@H](O)[C@H](NC(=O)[C@H](Cc1ccccc1)NC(=O)[C@@H](NC(=O)[C@H](CCCCN)NC(=O)[C@@H](Cc1c[nH]c2ccccc12)NC(=O)[C@H](Cc1ccccc1)NC(=O)[C@H](Cc1ccccc1)NC(=O)[C@@H](Cc1ccccc1)NC(=O)CN1CCN(CCO)CC1)[C@@H](C)O)C(N)=O` [Analog II] (X1-[dF]FF[dW]KTFT-NH2), the Ki was 5.38 nM on rat SSTR-5 [1] (read-out: Ki SSTR-5); 1.29 nM on human SSTR-5 (human receptor in CHO-K1 cells, LC 0.05 nM, LEC 0.18 nM, read-out: Ki SSTR-5); 4.15 nM on human SSTR-2; 305 nM at rat SSTR-2 (setting [3]).

`CC(C)[C@@H]1NC(=O)[C@H](CCCCN)NC(=O)[C@@H](Cc2c[nH]c3ccccc23)NC(=O)[C@H](Cc2ccc(O)cc2)NC(=O)[C@@H](NC(=O)[C@H](N)Cc2ccc3ccccc3c2)CSSC[C@@H](C(=O)N[C@H](C(N)=O)[C@@H](C)O)NC1=O` [BIM-23014, H-D-P-Nal-Cys-Tyr-D-Trp-Lys-Val-Cys-Ser-NH2, reference compound]: the inhibitory constant (Ki) on rat SSTR-5 [1] turned out to be 64.8 nM; on human SSTR-2, 1.09 nM; on rat SSTR-2 it was 0.34 nM. For the same compound, in the test on rat Pancreas cells, the “effect on glucose-induced amylin secretion (in words)” value is “no effect”.

Consider `C[C@@H](O)[C@H](NC(=O)[C@H](Cc1ccccc1)NC(=O)[C@@H](NC(=O)[C@H](CCCCN)NC(=O)[C@@H](Cc1c[nH]c2ccccc12)NC(=O)[C@H](Cc1ccccc1)NC(=O)[C@H](Cc1ccccc1)NC(=O)[C@H](N)Cc1ccccc1)[C@@H](C)O)C(N)=O` [BIM-23052, H-D-Phe-Phe-Phe-D-Trp-Lys-Thr-Phe-Thr-NH2] (H-[dF]FF[dW]KTFT-NH2), for which the results for the Ki at rat SSTR-5 [1] (read-out: Ki SSTR-5), at human SSTR-2 and on rat SSTR-2 were 3.16 nM, 14.1 nM and 8.04 nM, respectively. The “SSTR-2/SSTR-5 (ratio of Ki's)” value in the test with rat SSTR-5 [2] is 2.54; at human SSTR-5, 11.5. The “decrease in glucose stimulated amylin secretion” value in the test with rat Pancreas cells came to 78%.

For `C[C@@H](O)[C@@H]1NC(=O)[C@H](CCCCN)NC(=O)[C@@H](Cc2c[nH]c3ccccc23)NC(=O)[C@H](Cc2ccccc2)NC(=O)[C@@H](NC(=O)[C@H](N)Cc2ccccc2)CSSC[C@@H](C(=O)N[C@H](CO)[C@@H](C)O)NC1=O` [SMS 201-995, H-D-Phe-Cys-Phe-D-Trp-Lys-Thr-Cys-Threoninol, reference compound], the affinity on rat SSTR-5 [1] corresponds to a Ki of 9.14 nM.

As to Somatostatin-14 [reference compound], the entries for the “SSTR-2/SSTR-5 (ratio of Ki's)” value in the test on rat SSTR-5 [2] and on human SSTR-5 were 0.34 and 0.20, respectively. Besides, the “effect on glucose-induced amylin secretion (in words)” value in the test on rat Pancreas cells is on record as “inhibited glucose-induced amylin secretion”.
